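All cell lines were grown in 96-well plates and treated with compound for 48 hours. Abbreviation: GI50, concentration required for 50% inhibition of growth.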 The source made the active and inactive calls. No stated cut-off is given here; in the data, active = GI50 up to about 1.1 µM and inactive = higher.
Legend:
Assay in all cases: inhibition of tumour cell growth, NCI panel, 48 h
SN12C = tested on: SN12C
U-251 = tested on: U-251
NCI-H23 = tested on: NCI-H23
BT-549 = tested on: BT-549
HCC 2998 = tested on: HCC 2998
CCRF-CEM = tested on: CCRF-CEM
MCF7 = tested on: MCF7
NCI-H460 = tested on: NCI-H460
SF-268 = tested on: SF-268
UACC-62 = tested on: UACC-62
786-0 = tested on: 786-0
SK-MEL-28 = tested on: SK-MEL-28
OVCAR-4 = tested on: OVCAR-4
K562 = tested on: K562
SF-539 = tested on: SF-539
ACHN = tested on: ACHN
SK-MEL-2 = tested on: SK-MEL-2
CAKI-1 = tested on: CAKI-1
MDA-MB-435 = tested on: MDA-MB-435
HOP-92 = tested on: HOP-92
SW-620 = tested on: SW-620
A498 = tested on: A498
HCT-15 = tested on: HCT-15
NCI-H226 = tested on: NCI-H226
KM12 = tested on: KM12
A549 = tested on: A549
OVCAR-5 = tested on: OVCAR-5
HCT-116 = tested on: HCT-116
RXF 393 = tested on: RXF 393
MOLT-4 = tested on: MOLT-4
SK-MEL-5 = tested on: SK-MEL-5
MDA-N = tested on: MDA-N
NCI/ADR-RES = tested on: NCI/ADR-RES
T47D = tested on: T47D
M14 = tested on: M14
SNB-75 = tested on: SNB-75
SNB-19 = tested on: SNB-19
UO-31 = tested on: UO-31
SK-OV-3 = tested on: SK-OV-3
OVCAR-3 = tested on: OVCAR-3
PC-3 = tested on: PC-3
SR = tested on: SR
OVCAR-8 = tested on: OVCAR-8
COLO 205 = tested on: COLO 205
DU-145 = tested on: DU-145
UACC-257 = tested on: UACC-257
LOX IMVI = tested on: LOX IMVI
HT-29 = tested on: HT-29
SF-295 = tested on: SF-295
MDA-MB-231 = tested on: MDA-MB-231
HL-60 = tested on: HL-60
RPMI-8226 = tested on: RPMI-8226
Hs-578T = tested on: Hs-578T
TK-10 = tested on: TK-10
NCI-H522 = tested on: NCI-H522
IGROV-1 = tested on: IGROV-1
EKVX = tested on: EKVX
Malme-3M = tested on: Malme-3M
HOP-62 = tested on: HOP-62

Measured: GI50

Cc1ccc(NC(=O)/C(=N\NC(N)=O)c2c(O)c3ccccc3[nH]c2=O)cc1
> 100 µM: HCT-15
inactive: SN12C > 100 µM | U-251 > 100 µM | NCI-H23 > 100 µM | BT-549 > 100 µM | HCC 2998 > 100 µM | CCRF-CEM > 100 µM | MCF7 > 100 µM | NCI-H460 > 100 µM | SF-268 > 100 µM | UACC-62 > 100 µM | 786-0 > 100 µM | SK-MEL-28 > 100 µM | OVCAR-4 > 100 µM | K562 > 100 µM | SF-539 > 100 µM | ACHN > 100 µM | SK-MEL-2 > 100 µM | CAKI-1 > 100 µM | MDA-MB-435 > 100 µM | HOP-92 > 100 µM | SW-620 > 100 µM | A498 > 100 µM | NCI-H226 > 100 µM | KM12 > 100 µM | A549 > 100 µM | OVCAR-5 > 100 µM | HCT-116 > 100 µM | RXF 393 > 100 µM | MOLT-4 > 100 µM | SK-MEL-5 > 100 µM | MDA-N > 100 µM | NCI/ADR-RES > 100 µM | T47D > 100 µM | M14 > 100 µM | SNB-75 99.8 µM | SNB-19 > 100 µM | UO-31 > 100 µM | SK-OV-3 > 100 µM | OVCAR-3 > 100 µM | PC-3 > 100 µM | SR > 100 µM | OVCAR-8 > 100 µM | COLO 205 > 100 µM | DU-145 > 100 µM | UACC-257 > 100 µM | LOX IMVI > 100 µM | HT-29 > 100 µM | SF-295 > 100 µM | MDA-MB-231 > 100 µM | HL-60 > 100 µM | RPMI-8226 > 100 µM | Hs-578T > 100 µM

CC(C)OP(=O)(CN(C)/C(F)=N\C(F)(F)F)OC(C)C
inactive: SN12C > 100 µM | U-251 > 100 µM | NCI-H23 > 100 µM | BT-549 > 100 µM | HCC 2998 > 100 µM | CCRF-CEM > 100 µM | MCF7 > 100 µM | NCI-H460 > 100 µM | SF-268 > 100 µM | UACC-62 > 100 µM | 786-0 > 100 µM | TK-10 > 100 µM | SK-MEL-28 > 100 µM | K562 > 100 µM | SF-539 > 100 µM | ACHN > 100 µM | SK-MEL-2 > 100 µM | CAKI-1 > 100 µM | MDA-MB-435 > 100 µM | NCI-H522 8.2 µM | HOP-92 > 100 µM | SW-620 > 100 µM | IGROV-1 > 100 µM | A498 > 100 µM | NCI-H226 > 100 µM | EKVX > 100 µM | KM12 > 100 µM | A549 > 100 µM | OVCAR-5 > 100 µM | HCT-116 > 100 µM | RXF 393 > 100 µM | MOLT-4 > 100 µM | SK-MEL-5 > 100 µM | MDA-N > 100 µM | NCI/ADR-RES > 100 µM | T47D > 100 µM | M14 > 100 µM | SNB-75 > 100 µM | SNB-19 > 100 µM | UO-31 > 100 µM | SK-OV-3 > 100 µM | Malme-3M > 100 µM | OVCAR-3 > 100 µM | PC-3 > 100 µM | HOP-62 > 100 µM | OVCAR-8 > 100 µM | COLO 205 > 100 µM | DU-145 > 100 µM | UACC-257 > 100 µM | LOX IMVI > 100 µM | HT-29 > 100 µM | SF-295 > 100 µM | MDA-MB-231 > 100 µM | HL-60 63.8 µM | Hs-578T > 100 µM
> 100 µM: HCT-15

S=C(S)N1CCN(c2ccccc2)CC1
> 100 µM: HCT-15
inactive: SN12C > 100 µM | U-251 48.5 µM | BT-549 > 100 µM | HCC 2998 71.3 µM | MCF7 > 100 µM | SF-268 88.3 µM | 786-0 45.1 µM | TK-10 > 100 µM | SK-MEL-28 45.9 µM | K562 52.6 µM | SF-539 > 100 µM | ACHN > 100 µM | SK-MEL-2 37.9 µM | CAKI-1 > 100 µM | MDA-MB-435 > 100 µM | NCI-H522 > 100 µM | HOP-92 > 100 µM | SW-620 71.9 µM | IGROV-1 > 100 µM | A498 > 100 µM | EKVX > 100 µM | KM12 > 100 µM | A549 > 100 µM | OVCAR-5 > 100 µM | HCT-116 34.5 µM | RXF 393 > 100 µM | SK-MEL-5 20.7 µM | MDA-N > 100 µM | NCI/ADR-RES > 100 µM | T47D > 100 µM | M14 > 100 µM | SNB-75 > 100 µM | SNB-19 > 100 µM | Malme-3M > 100 µM | OVCAR-3 > 100 µM | PC-3 > 100 µM | HOP-62 > 100 µM | OVCAR-8 > 100 µM | COLO 205 57.5 µM | DU-145 > 100 µM | UACC-257 > 100 µM | LOX IMVI 32.9 µM | HT-29 > 100 µM | SF-295 > 100 µM | MDA-MB-231 > 100 µM | HL-60 9.31 µM | RPMI-8226 27.5 µM | Hs-578T > 100 µM

From ChEMBL document CHEMBL1201862, “PubChem BioAssay data set” (2004)
